Columns and labels:
[1] = Metabolic study in mice (radiochromatogram of ex-vivo mouse blood); parameters: species or system Swiss albino mice; conditions: mouse blood 5 min after injection
Experimental: A bolus containing the radioligand in normal saline (100-150 μL, =3 nmol, 200-500 μCi) was injected in the tail vein of Swiss albino mice. Animals were kept for 5 min in a cage with access to water and were then euthanized promptly by cardiac puncture while under a mild ether anesthesia. Blood (500-900 μL) was collected from the heart with a syringe and transferred in a pre-chilled Eppendorf tube on ice.
Blood was centrifuged to remove blood cells (10 min, 2000 g/4° C.). The plasma was collected, mixed with acetonitrile (MeCN) in a 1/1 v/v ratio and centrifuged again (10 min, 15000 g/4° C.). Supernatants were concentrated to a small volume (gentle N2-flux at 40° C.), diluted with saline (z 400 μL) and filtered through a Millex GV filter (0.22 μm).
Aliquots of plasma samples (prepared as described above) were loaded on a Symmetry Shield RPM column which was eluted at a flow rate of 1.0 mL/min with the following gradient: 100% A to 90% A in 10 min and from 90% A to 60% for the next 60 min (A=0.1% aqueous TFA (v/v) and B=MeCN). Elution of radiocomponents was monitored by a gamma detector. For ^99mTc-radiopeptides, ITLC-SG analysis was performed in parallel using acetone as the eluent to detect traces of TcO4^− release (TcO4^− Rf=1.0).

PC-3 tumors (hGRPR+) = experiment: Biodistribution in GRPR+ tumor bearing mice; assay type: in vivo, female SCID mice; conditions: for uptake in PC-3 tumor: iv, 10 pmol total peptide
Experimental: A 150 μL bolus containing a suspension of 1.5×10^7 freshly harvested human PC-3 cells in normal saline was subcutaneously injected in the flanks of female SCID mice. The animals were kept under aseptic conditions and 2-3 weeks later developed well-palpable tumors at the inoculation site (80-150 mg).
On the day of the experiment, the selected radiopeptide was injected in the tail vein of tumor-bearing mice as a 100 μL bolus (1-2 μCi, 10 pmol total peptide; in saline/EtOH 9/1 v/v). Animals were sacrificed in groups of four under a mild ether anesthesia by cardiac puncture at predetermined time points pi (postinjection). Additional sets of three to four animals were co-injected with excess [Tyr^4]BBN (≈40 nmol) along with test radiopeptide and were sacrificed at 4 h pi (blocked animals). Samples of blood and tissues of interest were immediately collected, weighed and measured for radioactivity in a γ-counter. Stomach and intestines were not emptied of their contents, but measured as collected. Biodistribution data were calculated as percent injected dose per gram tissue (% ID/g) using the Microsoft Excel program with the aid of suitable standards of the injected dose.

malignant lesions = conditions: cited from earlier work
[2] = tested on: human prostate cancer PC-3 xenografts; conditions: cited from earlier work

## CC(C)CC(CC(C)C)NC(=O)[C@H](Cc1cnc[nH]1)NC(=O)CNC(=O)[C@@H](NC(=O)[C@H](C)NC(=O)[C@H](Cc1c[nH]c2ccccc12)NC(=O)[C@H](CCC(N)=O)NC(=O)[C@@H](Cc1ccccc1)NC(=O)COCC(=O)Nc1ccc(CNC(=O)CN2CCN(CC(=O)O)CCN(CC(=O)O)CCN(CC(=O)O)CC2)cc1)C(C)C [[67Ga]NeoBOMB-1] [^67Ga-DOTA-(p-aminobenzylamine-diglycolic acid)-[DPhe^6,His^12-CO—NH—CH[(CH2CH(CH3)2]2,des-Leu^3, des-Met^4]BBN(6-14), metal not drawn]
[1]
  percentage of parent peptide remaining intact: > 97%

## CC(C)CC(CC(C)C)NC(=O)[C@H](Cc1cnc[nH]1)NC(=O)CNC(=O)[C@@H](NC(=O)[C@H](C)NC(=O)[C@H](Cc1c[nH]c2ccccc12)NC(=O)[C@H](CCC(N)=O)NC(=O)[C@@H](Cc1ccccc1)NC(=O)COCC(=O)Nc1ccc(CNC(=O)C2C[N]3CC[NH][Tc]34(=[O])(=[O])[NH]CC[N]4C2)cc1)C(C)C (some centres unmarked) [[99mTc]NeoBOMB-2]
[1]
  percentage of parent peptide remaining intact: > 88%
PC-3 tumors (hGRPR+); 1 h pi
  uptake in PC-3 tumor: ~30 % ID/g
PC-3 tumors (hGRPR+); 4 h pi
  uptake in PC-3 tumor: ~30 % ID/g
PC-3 tumors (hGRPR+); 24 h pi
  uptake in PC-3 tumor: > 25 % ID/g

## CC(C)CC(CC(C)C)NC(=O)[C@H](Cc1cnc[nH]1)NC(=O)CNC(=O)[C@@H](NC(=O)[C@H](C)NC(=O)[C@H](Cc1c[nH]c2ccccc12)NC(=O)[C@H](CCC(N)=O)NC(=O)[C@@H](Cc1ccccc1)NC(=O)COCC(=O)Nc1ccc(CNC(=O)CN2CCN(CC(=O)O)CCN(CC(=O)O)CCN(CC(=O)O)CC2)cc1)C(C)C [[111In]NeoBOMB-1] [^111In-DOTA-(p-aminobenzylamine-diglycolic acid)-[DPhe^6,His^12-CO—NH—CH[(CH2CH(CH3)2)2,des-Leu^13,des-Met^14]BBN(6-14), metal not drawn]
[1]
  percentage of parent peptide remaining intact: > 91%
PC-3 tumors (hGRPR+); 4 h pi, excess [Tyr4]BBN (100 μg)
  tumor uptake after co-injection of excess [Tyr4]BBN (in vivo receptor blockade): significantly reduced
PC-3 tumors (hGRPR+); 4 h pi
  uptake in PC-3 tumor: 28.6±6.0 % ID/g
PC-3 tumors (hGRPR+); 24 h pi
  uptake in PC-3 tumor: 25.9±6.6 % ID/g

## CC(C)CC(CC(C)C)NC(=O)[C@H](Cc1cnc[nH]1)NC(=O)CNC(=O)[C@@H](NC(=O)[C@H](C)NC(=O)[C@H](Cc1c[nH]c2ccccc12)NC(=O)[C@H](CCC(N)=O)NC(=O)[C@@H](Cc1ccccc1)NC(=O)COCC(=O)Nc1ccc(CNC(=O)CN2CCN(CC(=O)O)CCN(CC(=O)O)CCN(CC(=O)O)CC2)cc1)C(C)C [[177Lu]NeoBOMB-1] [^177Lu-DOTA-(p-aminobenzylamine-diglycolic acid)-[DPhe^6,His^12-CO—NH—CH[(CH2CH(CH3)2]2,des-Leu^13,des-Met^14]BBN(6-14), metal not drawn]
[1]
  percentage of parent peptide remaining intact: > 92%
PC-3 tumors (hGRPR+); 4, 24 and 72 h pi, especially at 72 h pi
  tumor-to-pancreas ratios over time: increasingly higher tumor-to-pancreas ratios

## [^99mTc—N4′]DPhe-Gln-Trp-Ala-Val-Gly-His-Leu-NHEt [[99mTc]Demobesin 1]
Malignant lesions; human, in vivo
  body and pancreas clearance: rapid
  in vivo stability: rather good
  tolerability: excellent tolerability
Malignant lesions; humans
  retention in malignant lesions compared to radiolabeled BBN-like agonists: insufficient retention
[2]; mice bearing PC-3 xenografts
  tumor accumulation versus bombesin-based agonists ([99mTc]Demobesin 3-6): significantly higher tumor accumulation
[2]; mouse, in vivo
  clearance from the body of mice and the pancreas: cleared very rapidly

Reference: US11083805B2, “Radiolabeled GRPR-antagonists for diagnostic imaging and treatment of GRPR-positive cancer” (Advanced Accelerator Applications International SA, priority 2012, dated 2021)
